Experimental findings from PubChem BioAssay (NCI) are described below.

Common to all, as to test: growth of human tumour cells (NCI), 48 h
Experiment [1] concerns DMS 114 small cell lung.
Experiment [2] deals with DMS 273 small cell lung.
The test system of experiment [3] is LXFL 529 NSCLC.
The test system of experiment [4] is M19-MEL melanoma.
The subject of experiment [5] is SNB-78 CNS.
The subject of experiment [6] is XF 498 CNS.
Experiment [7] deals with BT-549 breast.
The subject of experiment [8] is RXF-631 renal.
Experiment [9] relates to HOP-18 NSCLC.

SMILES strings stand for the structures.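 Five compound concentrations were applied to cells in 96-well plates for 48 hours; endpoints were derived by simple linear interpolation of the resulting dose-response curve. At the TGI there is no net growth.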

As to `CCc1cccc(C(C)CC)c1NC(=O)C(=O)Cc1nc2ccccc2o1` (stereo not drawn), the TGI in [1], in experiment [2], in experiment [3], in [4], in [5] and in experiment [6] was above 50 µM each time.

In experiment [7], `CCO[C@H]1O[C@@H]2OC3(C)CCC4[C@H](C)CCC([C@H]1C)[C@]42OO3` (stereo partly drawn) gave a TGI above 100 µM.

`Cc1nn(C(=O)Cc2ccccc2)c2c1C(c1ccc([N+](=O)[O-])cc1)SC(N)=N2` (stereo not drawn): in experiment [7], the TGI is above 100 µM.

The compound `CN(C)/C=C/c1c2c(nc3ccccc13)C(=O)c1cccnc1C2=O` came in with a TGI in experiment [7] of 1.6 µM.

For the compound `CN/N=C(\C)C(CN1CCCCC1)C(C1=C(O)c2ccccc2OC1)c1ccccc1` (stereo not drawn), the TGI in experiment [1], in experiment [2], in experiment [3], in [4], in experiment [8] and in [5] was above 100 µM throughout. Further, the TGI in [6] was above 100 µM.

The compound `O=C(O)c1ccccc1/C=C1/Cc2ccc3c(c2C1=O)CCC3` gave a TGI in [7] of 96.8 µM.

As for `Cc1cccc2c(NCCN(C)C)c3cccc(C(=O)NCCN(C)C)c3nc12`, in experiment [7], the TGI was 4.55 µM.

Regarding `O=C(Nc1ccccc1)c1cc(S(=O)(=O)N2CCNC2=O)c(S)cc1Cl`, the TGI in [7] was above 100 µM.

`CCOP(=O)(Nc1ccc(-c2ccc(N)cc2)cc1)OCC`: the TGI in [7] is above 100 µM.

As for `CCOc1cc(C2SCC(=O)N2c2ccc3c(c2)Oc2c(Cl)c4c(c(Cl)c2=N3)Oc2cc(N3C(=O)CSC3c3ccc(O)c(OCC)c3)ccc2N=4)ccc1O` (stereo not drawn), the TGI in experiment [7] is above 100 µM.

On to `Cc1nc(C)c(N2CCN(S(N)(=O)=O)CC2)c(=O)[nH]1`, for which, in [7], the TGI is above 100 µM.

As for `O=C1NC(=O)C(C(c2ccc([N+](=O)[O-])cc2)C2C(=O)NC(=O)NC2=O)C(=O)N1`, the TGI in [7] is above 100 µM.

On to `Cn1c2ccccc2c2c3c(c4c5ccccc5n(C5OC(CO)C(O)C(O)C5O)c4c21)C(=O)OC3=O` (stereo not drawn), for which the TGI in experiment [7] was above 100 µM.

Regarding `CS(=O)(=O)NNS(=O)(=O)c1ccc(F)cc1`, the TGI in experiment [1], in [2], in experiment [3], in [4] and in experiment [8] was above 100 µM in each case.

`COCN1C(=N)C(C(=O)OC(C)(C)C)=C2C=C(O)C=CC21C` (stereo not drawn) gave a TGI in experiment [7] of 12.8 µM.

As to `CCOC(=O)/C(=C\c1cn(C(C)=O)c2ccccc12)P(C)(=O)OCC` (stereo not drawn), the TGI in experiment [7] worked out at 61.3 µM.

For the compound `C/C=C\C(CC(=O)NCCC1CN(C(=O)OCc2ccccc2)c2ccccc21)CC(=O)OC` (stereo not drawn), the TGI in [7] is above 100 µM.

Regarding `Oc1ccc(C2Oc3cc(O)cc4c3C2c2cc(O)cc3c2C(c2cc(O)cc5c2C4C(c2ccc(O)cc2)O5)C(c2ccc(O)cc2)O3)cc1` (stereo not drawn), the TGI was above 25 µM in experiment [1]; above 25 µM in experiment [2]; above 25 µM in experiment [3]; above 25 µM in experiment [4]; 24.5 µM in [6].

`Cc1ccc2nc(CN(CCO)CCO)cc(=O)n2c1` displayed a TGI in [7] above 100 µM.

For `COC(=O)N/N=C(\C)CC(=O)Nc1cccc([N+](=O)[O-])c1`, the TGI in experiment [1], in [2], in experiment [3], in experiment [4], in experiment [5] and in [6] was above 100 µM each time.

On to `N#Cc1ccc(OCCSCCCCCCCCCCSCCOc2ccc(C#N)cc2)cc1`, for which the TGI in experiment [1], in experiment [9], in [3], in experiment [4] and in [5] was above 100 µM in each case.

With `O=C(O[C@H]1[C@@H]2C=CO[C@@H](OC3OC(CO)C(O)C(O)C3O)[C@@H]2[C@@]2(CO)O[C@@H]12)c1ccc(O)c(O)c1` (stereo partly drawn), the TGI in experiment [2], in experiment [3], in experiment [4], in experiment [5] and in [6] was above 100 µM throughout.

The compound `[N-]=[N+]=Nc1c(-c2ccccc2)c(=O)n(-c2ccccc2)c2ccccc12` registered a TGI in [7] above 100 µM.

On to `OCC(O)COCn1cc(Cn2ncc3c(NCc4ccccc4)ncnc32)nn1` (stereo not drawn), for which the TGI in experiment [7] is above 100 µM.

`Cc1ccc(N=C2OP(=O)(Nc3ccc(C)cc3)Oc3ccccc32)cc1` (stereo not drawn) displayed a TGI in [7] above 100 µM.

With `C#CC(C)(C)OCCCCOc1cc(O)c2c(=O)c3ccccc3n(C)c2c1`, the TGI in [1], in experiment [2], in experiment [9], in [3], in experiment [4] and in experiment [5] was above 100 µM in each case. Also, the TGI in [6] was above 100 µM.

For `O=C1NC(=S)NC(=O)C1=CC1CC1`, the TGI in [1], in experiment [2], in experiment [9], in experiment [3], in [4] and in experiment [5] was above 100 µM in each case. This compound also gave a TGI in experiment [6] above 100 µM.

On to `O=C(O)/C=C/c1ccc(OS(=O)(=O)O)cc1`, for which the TGI in experiment [7] was above 100 µM.

As for `O=S1(=O)c2ccccc2N2C(c3ccccc3)=NOC2(c2ccccc2)CC1c1ccc(Br)cc1` (stereo not drawn), the TGI in experiment [7] was above 100 µM.

Regarding `CSc1ccc2c(cc1=O)C(NC(=O)c1ccccc1)CCc1cc(O)c(O)c(O)c1-2` (stereo not drawn), the TGI is 79.7 µM in experiment [1]; above 100 µM in experiment [2]; above 100 µM in experiment [9]; 60.8 µM in experiment [3]; 65 µM in experiment [4]; above 100 µM in experiment [5].

On to `O=C1/C(=C/c2ccccc2)CCc2ccc([N+](=O)[O-])cc21`, for which the TGI in experiment [7] is above 94.4 µM.

In the case of `CC(C)(C)OC(=O)NCCC1CNc2ccccc21` (stereo not drawn), in [7], the TGI was above 100 µM.

Consider `COC(=O)[C@@H]1C[C@]2(Br)c3ccccc3N(S(=O)(=O)c3ccccc3)[C@@H]2N1C(=O)OC`, for which the TGI in experiment [7] was above 100 µM.

The compound `COC(=O)c1sc2c(=O)c(C(=O)OC)c(C(=O)OC)sc2c(=O)c1C(=O)OC` displayed a TGI in experiment [7] above 100 µM.
